In this assay the target is T1, PI3Kγ (p101/p110γ protein) (Homo sapiens, UniProt P48736).
T1 construct: HA; made in house; host or cells: Spodoptera frugiperda (Sf9) cells, baculovirus co-infection
The experiment in a line: PI3Kγ In Vitro Kinase Assay. The following applies: purified recombinant p101/p110γ with G protein β1/γ2 subunits; 20 μM ATP, 25 μM PIP2; 20 minutes at room temperature. It counts as biochemical. An outline of the steps:
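Reactions ran 20 min at room temperature, pairing lipid micelles (25 μM PIP2, 300 μM PE, 0.02% Na-cholate, 10 mM MgCl2) with 20 μM ATP including [γ-32P]ATP. The enzyme was recombinant p101/p110γ (2.7 nM) with G protein β1/γ2 (57.7 nM). [32P]PIP3 product was stopped with H3PO4, filtered and scintillation counted.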

T1 sequence (P48736 whole entry, species assumed): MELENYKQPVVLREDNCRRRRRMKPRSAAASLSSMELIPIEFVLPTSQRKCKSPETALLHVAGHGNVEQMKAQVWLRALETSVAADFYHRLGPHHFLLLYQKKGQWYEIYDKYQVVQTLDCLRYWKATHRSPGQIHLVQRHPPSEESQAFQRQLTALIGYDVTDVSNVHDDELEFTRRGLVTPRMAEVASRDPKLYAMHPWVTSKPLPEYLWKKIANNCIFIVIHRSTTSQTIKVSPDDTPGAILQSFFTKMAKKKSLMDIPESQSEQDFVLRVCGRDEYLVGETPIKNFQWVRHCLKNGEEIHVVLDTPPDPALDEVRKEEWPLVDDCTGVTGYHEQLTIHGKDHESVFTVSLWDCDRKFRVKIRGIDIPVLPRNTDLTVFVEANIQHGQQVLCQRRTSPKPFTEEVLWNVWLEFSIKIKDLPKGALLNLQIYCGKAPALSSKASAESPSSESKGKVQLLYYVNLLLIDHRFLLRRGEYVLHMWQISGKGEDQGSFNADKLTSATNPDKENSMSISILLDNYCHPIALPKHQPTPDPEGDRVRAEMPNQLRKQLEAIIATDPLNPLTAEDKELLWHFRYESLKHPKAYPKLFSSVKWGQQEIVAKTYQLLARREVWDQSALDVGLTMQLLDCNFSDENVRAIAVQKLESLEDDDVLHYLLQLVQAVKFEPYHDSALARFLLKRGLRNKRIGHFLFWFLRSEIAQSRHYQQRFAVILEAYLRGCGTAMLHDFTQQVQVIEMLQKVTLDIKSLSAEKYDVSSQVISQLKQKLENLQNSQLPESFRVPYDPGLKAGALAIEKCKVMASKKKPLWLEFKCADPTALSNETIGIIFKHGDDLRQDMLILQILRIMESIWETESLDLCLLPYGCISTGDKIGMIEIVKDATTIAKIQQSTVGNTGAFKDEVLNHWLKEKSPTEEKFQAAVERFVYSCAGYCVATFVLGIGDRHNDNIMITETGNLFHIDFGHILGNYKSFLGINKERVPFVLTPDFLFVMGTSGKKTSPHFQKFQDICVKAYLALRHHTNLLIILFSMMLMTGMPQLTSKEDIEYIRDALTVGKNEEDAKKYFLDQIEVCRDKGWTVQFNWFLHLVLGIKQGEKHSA
T1 sequence (Q8WYR1 whole entry partner, species assumed): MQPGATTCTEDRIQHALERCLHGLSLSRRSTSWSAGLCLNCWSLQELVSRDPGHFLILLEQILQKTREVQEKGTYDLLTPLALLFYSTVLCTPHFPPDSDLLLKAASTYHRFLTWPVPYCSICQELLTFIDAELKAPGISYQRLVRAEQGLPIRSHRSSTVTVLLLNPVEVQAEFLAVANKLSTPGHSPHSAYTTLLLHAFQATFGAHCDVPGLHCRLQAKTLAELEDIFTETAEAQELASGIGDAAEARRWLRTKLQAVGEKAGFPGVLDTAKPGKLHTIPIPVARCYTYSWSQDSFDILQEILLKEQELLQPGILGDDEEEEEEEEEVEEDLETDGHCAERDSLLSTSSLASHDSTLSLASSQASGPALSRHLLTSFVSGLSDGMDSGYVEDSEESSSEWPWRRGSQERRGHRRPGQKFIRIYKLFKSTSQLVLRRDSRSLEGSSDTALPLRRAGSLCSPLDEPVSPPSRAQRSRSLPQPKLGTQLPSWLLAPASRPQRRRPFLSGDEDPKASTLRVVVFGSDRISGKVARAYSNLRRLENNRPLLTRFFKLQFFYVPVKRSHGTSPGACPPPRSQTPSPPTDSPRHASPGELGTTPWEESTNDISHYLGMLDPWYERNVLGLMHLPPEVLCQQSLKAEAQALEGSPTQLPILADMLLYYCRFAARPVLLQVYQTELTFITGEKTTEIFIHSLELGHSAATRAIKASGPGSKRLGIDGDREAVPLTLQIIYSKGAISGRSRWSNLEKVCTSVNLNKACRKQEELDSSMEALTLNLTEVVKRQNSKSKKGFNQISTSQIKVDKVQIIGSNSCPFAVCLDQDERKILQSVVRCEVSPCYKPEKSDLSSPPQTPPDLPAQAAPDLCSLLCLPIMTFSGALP

Take `O=C1NC(=O)C(=Cc2ccc3c(c2)N(CC2CCCCC2)C(=O)CO3)S1` [Example 258, 5-(4-Cyclohexylmethyl-3-oxo-3,4-dihydro-2H-1,4-benzoxazin-6-ylmethylene)-thiazolidine-2,4-dione]: the IC50 stood at 4 nM.
With `O=C1NC(=S)SC1=Cc1ccc2c(c1)N(Cc1ccc(S(=O)(=O)N3CCOCC3)cc1)C(=O)CO2` [Example 259, 4-[4-(Morpholine-4-sulfonyl)-benzyl]-6-(4-oxo-2-thioxo-thiazolidin-5-ylidenemethyl)-4H-1,4-benzoxazin-3-one] the figure was 13 nM.
As for `COc1c(CN2C(=O)COc3ccc(C=C4SC(=S)NC4=O)cc32)cccc1C(C)C` [Example 260, 4-(3-Isopropyl-2-methoxy-benzyl)-6-(4-oxo-2-thioxo-thiazolidin-5-ylidenemethyl)-4H-1,4-benzoxazin-3-one], the figure is 4 nM; as for `O=C1NC(=S)OC1=Cc1ccc2c(c1)N(CC1CCCCC1)C(=O)CO2` [Example 261, 4-Cyclohexylmethyl-6-(4-oxo-2-thioxo-oxazolidin-5-ylidenemethyl)-4H-1,4-benzoxazin-3-one], 2 nM; as for `CN(C)S(=O)(=O)c1cccc(CN2C(=O)COc3ccc(C=C4SC(=S)NC4=O)cc32)c1` [Example 262, N,N-Dimethyl-3-[3-oxo-6-(4-oxo-2-thioxo-thiazolidin-5-ylidenemethyl)-2,3-dihydro-1,4-benzoxazin-4-ylmethyl]-benzenesulfonamide], 19 nM.
As for `CC(C)(C)c1cccc(CN2C(=O)COc3ccc(C=C4SC(=S)NC4=O)cc32)c1` [Example 263, 4-(3-tert-Butyl-benzyl)-6-(4-oxo-2-thioxo-thiazolidin-5-ylidenemethyl)-4H-1,4-benzoxazin-3-one], the figure is 18 nM; as for `CN(C)S(=O)(=O)c1ccc(CN2C(=O)COc3ccc(/C=C4\SC(=S)NC4=O)cc32)cc1` [Example 264, N,N-Dimethyl-4-{3-oxo-6-[4-oxo-2-thioxo-thiazolidin-(5Z)-ylidenemethyl]-2,3-dihydro-benzo[1,4]oxazin-4-ylmethyl}-benzenesulfonamide], 4 nM; as for `CS(=O)(=O)c1cccc(CN2C(=O)COc3ccc(/C=C4\SC(=O)NC4=O)cc32)c1` [Example 265, 5-[1-[4-(3-Methanesulfonyl-benzyl)-3-oxo-3,4-dihydro-2H-benzo[1,4]oxazin-6-yl]-meth-(Z)-ylidene]-thiazolidine-2,4-dione], 18 nM.
In the case of `C/C(=C1/SC(=S)NC1=O)c1ccc2c(c1)N(Cc1ccccc1)C(=O)CO2` [Example 266, 4-Benzyl-6-{1-[4-oxo-2-thioxo-thiazolidin-(5Z)-ylidene]-ethyl}-4H-benzo[1,4]oxazin-3-one], the IC50 was determined as 1610 nM.
With `O=C1NC(=S)S/C1=C\c1cnc2c(c1)N(CCc1ccccc1)C(=O)CO2` [Example 267, 7-[4-Oxo-2-thioxo-thiazolidin-(5Z)-ylidenemethyl]-1-phenethyl-1H-pyrido[2,3-b][1,4]oxazin-2-one] the figure was 460 nM; with `C/C(=C1/SC(=S)NC1=O)c1ccc2c(c1)NC(=O)CO2` [Example 268, 6-{1-[4-Oxo-2-thioxo-thiazolidin-(5Z)-ylidene]-ethyl}-4H-benzo[1,4]oxazin-3-one], 4640 nM; with `CS(=O)(=O)c1cccc(CN2C(=O)COc3c(F)cc(C=C4SC(=S)NC4=O)cc32)c1` [Example 269, 8-Fluoro-4-(3-methanesulfonyl-benzyl)-6-(4-oxo-2-thioxo-thiazolidin-5-ylidenemethyl)-4H-benzo[1,4]oxazin-3-one], 14 nM.
With `CS(=O)(=O)c1cccc(CN2C(=O)COc3ccc(/C=C4\SC(=S)NC4=O)cc32)c1` [Example 270, 4-(3-Methanesulfonyl-benzyl)-6-[4-oxo-2-thioxo-thiazolidin-(5Z)-ylidenemethyl]-4H-benzo[1,4]oxazin-3-one] the figure was 11 nM; with `O=C1NC(=S)O/C1=C\c1ccc2c(c1)N(Cc1cc(C(F)(F)F)cc(C(F)(F)F)c1)C(=O)CO2` [Example 271, 4-(3,5-Bis-trifluoromethyl-benzyl)-6-[4-oxo-2-thioxo-oxazolidin-(5Z)-ylidenemethyl]-4H-benzo[1,4]oxazin-3-one], 101 nM.
With `O=C1NC(=O)/C(=C/c2ccc3c(c2)N(Cc2cc(C(F)(F)F)cc(C(F)(F)F)c2)C(=O)CO3)S1` [Example 272, 5-[1-[4-(3,5-Bis-trifluoromethyl-benzyl)-3-oxo-3,4-dihydro-2H-benzo[1,4]oxazin-6-yl]-meth-(Z)-ylidene]-thiazolidine-2,4-dione], the IC50 is 70 nM.
With `O=C1NC(=S)S/C1=C\c1cc(F)c2c(c1)N(Cc1cc(C(F)(F)F)cc(C(F)(F)F)c1)C(=O)CO2` [Example 273, 4-(3,5-Bis-trifluoromethyl-benzyl)-8-fluoro-6-[4-oxo-2-thioxo-thiazolidin-(5Z)-ylidenemethyl]-4H-benzo[1,4]oxazin-3-one] the figure was 121 nM.
Turning to `COCCOCOCc1cc(CN2C(=O)COc3ccc(/C=C4\SC(=S)NC4=O)cc32)cc(C(C)(C)C)c1` [Example 274, 4-[3-tert-Butyl-5-(2-methoxy-ethoxymethoxymethyl)-benzyl]-6-[4-oxo-2-thioxo-thiazolidin-(5Z)-ylidenemethyl]-4H-benzo[1,4]oxazin-3-one], the IC50 is 13 nM.
Turning to `CC(C)(C)c1cc(CN2C(=O)COc3ccc(C=C4SC(=S)NC4=O)cc32)cc(C(=O)N2CCOCC2)c1` [Example 275, 4-[3-tert-Butyl-5-(morpholine-4-carbonyl)-benzyl]-6-(4-oxo-2-thioxo-thiazolidin-5-ylidenemethyl)-4H-1,4-benzoxazin-3-one; compound with ethane-1,2-diamine], the concentration for half-maximal inhibition (IC50) stood at 25 nM.
As for `CC(C)(C)c1cc(CN2C(=O)COc3c(F)cc(/C=C4\SC(=O)NC4=O)cc32)cc(C(C)(C)O)c1` [Example 276, 5-[1-{4-[3-tert-Butyl-5-(1-hydroxy-1-methyl-ethyl)-benzyl]-8-fluoro-3-oxo-3,4-dihydro-2H-benzo[1,4]oxazin-6-yl}-meth-(Z)-ylidene]-thiazolidine-2,4-dione], the figure is 7 nM; as for `CC(C)(C)c1cc(CN2CCOCC2)cc(CN2C(=O)COc3ccc(/C=C4\SC(=O)NC4=O)cc32)c1` [Example 277, 5-[1-[4-(3-tert-Butyl-5-morpholin-4-ylmethyl-benzyl)-3-oxo-3,4-dihydro-2H-benzo[1,4]oxazin-6-yl]-meth-(Z)-ylidene]-thiazolidine-2,4-dione], 5 nM; as for `CC(C)(C)c1cc(CN2CCOCC2)cc(CN2C(=O)COc3ccc(/C=C4\SC(=S)NC4=O)cc32)c1` [Example 278, 4-(3-tert-Butyl-5-morpholin-4-ylmethyl-benzyl)-6-[4-oxo-2-thioxo-thiazolidin-(5Z)-ylidenemethyl]-4H-benzo[1,4]oxazin-3-one], 7 nM.
With `CN1CCN(C(=O)c2cc(CN3C(=O)COc4ccc(/C=C5\SC(=S)NC5=O)cc43)cc(C(C)(C)C)c2)CC1` [Example 279, 4-[3-tert-Butyl-5-(4-methyl-piperazine-1-carbonyl)-benzyl]-6-[4-oxo-2-thioxo-thiazolidin-(5Z)-ylidenemethyl]-4H-benzo[1,4]oxazin-3-one] the figure was 16 nM.
Turning to `CN1CCN(C(=O)c2ccc(CN3C(=O)COc4ccc(/C=C5\SC(=S)NC5=O)cc43)cc2)CC1` [Example 280, 4-[4-(4-Methyl-piperazine-1-carbonyl)-benzyl]-6-[4-oxo-2-thioxo-thiazolidin-(5Z)-ylidenemethyl]-4H-benzo[1,4]oxazin-3-one], the IC50 is 8 nM.
With `O=C1NC(=S)S/C1=C\c1ccc2c(c1)N(Cc1ccc(C(=O)N3CCOCC3)cc1)C(=O)CO2` [Example 281, 4-[4-(Morpholine-4-carbonyl)-benzyl]-6-[4-oxo-2-thioxo-thiazolidin-(5Z)-ylidenemethyl]-4H-benzo[1,4]oxazin-3-one] the figure was 8 nM.
As for `CC(C)(O)c1cccc(CN2C(=O)COc3ccc(/C=C4\SC(=S)NC4=O)cc32)c1` [Example 282, 4-[3-(1-Hydroxy-1-methyl-ethyl)-benzyl]-6-[4-oxo-2-thioxo-thiazolidin-(5Z)-ylidenemethyl]-4H-benzo[1,4]oxazin-3-one; Compound with ethane-1,2-diamine], the figure is 13 nM; as for `COC(C)(C)c1cc(CN2C(=O)COc3ccc(/C=C4\SC(=S)NC4=O)cc32)cc(C(C)(C)C)c1` [Example 283, 4-[3-tert-Butyl-5-(1-methoxy-1-methyl-ethyl)-benzyl]-6-[4-oxo-2-thioxo-thiazolidin-(5Z)-ylidenemethyl]-4H-benzo[1,4]oxazin-3-one], 11 nM.
As to `CC(C)(C)c1cc(CO)cc(CN2C(=O)COc3c(F)cc(/C=C4\SC(=S)NC4=O)cc32)c1` [Example 284, 4-(3-tert-Butyl-5-hydroxymethyl-benzyl)-8-fluoro-6-[4-oxo-2-thioxo-thiazolidin-(5Z)-ylidenemethyl]-4H-benzo[1,4]oxazin-3-one], the IC50 stood at 10 nM.
As for `CC(=O)OCc1cc(CN2C(=O)COc3c(F)cc(/C=C4\SC(=S)NC4=O)cc32)cc(C(C)(C)C)c1` [Example 285, Acetic acid 3-tert-butyl-5-{8-fluoro-3-oxo-6-[4-oxo-2-thioxo-thiazolidin-(5Z)-ylidenemethyl]-2,3-dihydro-benzo[1,4]oxazin-4-ylmethyl}-benzyl ester], the figure is 21 nM.
With `O=C1NC(=S)S/C1=C\c1ccc2oc(=O)n(Cc3ccc(Cl)c(Cl)c3)c2c1` [Example 286, 3-(3,4-Dichloro-benzyl)-5-[4-oxo-2-thioxo-thiazolidin-(5Z)-ylidenemethyl]-3H-benzooxazol-2-one] the figure was 220 nM; with `O=C1NC(=S)S/C1=C\c1ccc2c(c1)N(Cc1ccc(I)cc1)C(=O)CO2` [Example 287, 4-(4-Iodo-benzyl)-6-[4-oxo-2-thioxo-thiazolidin-(5Z)-ylidenemethyl]-4H-benzo[1,4]oxazin-3-one], 16 nM.

By IC50 is commonly meant the point on the concentration scale where inhibition reaches its midpoint.
